Ends that are not written are not given here.
Key:
[1] = system: mice; test: In vivo TNF toxicity, blood glucose and appearance; conditions: 10 μg of Peptide 2, 200 μg recombinant human TNF
Method: Appearance parameters which were evaluated included ruffling of fur, touch sensitivity, presence of eye exudate, light sensitivity and diarrhoea.
Nonfasting blood glucose levels were determined on a Beckman Glucose Analyzer 2 (Beckman Instruments) or on a Exectech blood glucose sensor (Clifford Hallam Pty. Ltd).

[2] = system: D-galactosamine sensitized mice; test: TNF toxicity in D-galactosamine sensitized mice; format: in vivo; conditions: 16 mg D-galactosamine and 2 μg human recombinant TNF i.p., peptide s.c.; survival up to 48 hours
Method: The mice were then injected subcutaneously with either test peptide, phosphate buffered saline or neutralizing anti-TN? monoclonal antibody 47.

[3] = system: Meth A ascites tumour-bearing mice; test: LPS lethality in Meth A ascites tumour-bearing mice; format: in vivo; conditions: 500 μg E.coli LPS, peptide s.c.; survival up to 64 hours; * heightened activity
Method: In LPS experiments polymyxin B, an LPS inhibitor, replaced MAb 47 as a positive control. The number of animals surviving was assessed at intervals up to 64 hours after LPS challenge.

[4] = system: human neutrophils
Method: In these experiments, neutrophils were prepared from blood of healthy volunteers by the rapid single step method (Kowanko and Ferrante 1987 Immunol 62, 149). To 100 μl of 5×10^6 neutrophils/ml was added 100 μl of either 0, 10, 100 μg of peptide/ml and 800 μl of lucigenin (100 μg). The tubes were immediately placed into a light proof chamber (with a 37° C. water jacket incubator) of a luminometer (model 1250; LKB Instruments, Wallac, Turku, Finaldn). The resultant light output (in millivolts was recorded). The results are recorded as the maximal rate of chemiluminescence production.

[5] = system: bovine aortic endothelial cells
Method: Endothelial cell procoagulant activity (PCA) induction by TNFα was determined using bovine aortic endothelial cells (BAE) according to the procedure of Bevilacqua et al., 1986 PNAS 83, 4522 with the following modifications: BAE cells were propagated in McCoys 5A medium supplemented with 10% FCS, penicillin, streptomycin and L-gutamine in standard tissue culture flasks and 24-well dishes. TNFα treatment of culture (3 μg/ml) was for 4 hours at 37° C. in the presence of growth medium after which the cells were washed and scrape-harvested before being frozen, thawed and sonicated. Total cellular PCA was determined in a standard one-stage clotting assay using normal donor platelet poor plasma to which 100 μl of CaCl2 and 100 μl of cell lystate was added. Statistical significance was determined by unpaired t-test.

Q: For “ARG THR PRO SER ASP LYS VAL PRO ALA HIS VAL VAL ALA (RTPSDKVPAHVVA; printed: ARG THR PRO SER ASP LYS VAL PRO ALA HIS VAL VAL ALA) [Peptide 2]”, which “TNF toxicity as indicated by blood glucose changes” value [1] is on record?
A: abrogated TNF toxicity

Q: What about the “IN VIVO TNF TOXICITY D-GAL” value [2] of the same substance?
A: + (each group contains 10 animals: scored positive if 6 or more survive)

Q: For “Ac-PSDKPVA-NH2 [Peptide 29, Ac PRO SER ASP LYS PRO VAL ALA NH2]”, which “IN VIVO LPS TOXICITY METH A” value [3] is on record?
A: + (10 animals per group scored positive if 7 or more survive)

Q: Which “IN VIVO LPS TOXICITY METH A” value [3] does the source give for “Ac-RTPSDKPVAHV-NH2 [Peptide 30, Ac ARG THR PRO SER ASP LYS PRO VAL ALA HIS VAL NH2]” here?
A: + (10 animals per group scored positive if 7 or more survive)

Q: What about the “IN VIVO TNF TOXICITY D-GAL” value [2] of the same substance?
A: + (each group contains 10 animals: scored positive if 6 or more survive)

Q: How did the “activation of the respiratory burst” value [4] turn out when “VRSSSRTPSDKPVAHVVA [Peptide 1, VAL ARG SER SER SER ARG THR PRO SER ASP LYS PRO VAL ALA HIS VAL VAL ALA]” was run?
A: failed to either activate the respiratory burst

Q: What about the “induction of procoagulant activity” value [5] of the same substance?
A: failed to either activate the respiratory burst of human neutrophils (Table 5) or to induce procoagulant activity

Source: patent publication US5795859A (priority 1991, dated 1998)
